Reference: patent publication US8686177B2, “LPA receptor agonists and antagonists” (RxBio, Inc., priority 2008, dated 2014)

Tests used:
[1] = test system: LPA receptors (LPA1/2/3); test: LPA receptor agonist/antagonist activity (Table 4); assay type: cell-based
Method: Compounds were tested for their ability to induce or inhibit LPA-induced calcium transients in RH7777 rat hepatoma cells stably expressing LPA1, LPA2, and LPA3 receptors and in PC-3 that express LPA1-3 endogenously, using a FlexStation II automated fluorometer (Molecular Devices, Sunnyvale, Calif.).
RH7777 cells stably expressing either LPA1, LPA2 or LPA3 or PC-3 cells were plated on poly-D lysine-coated black wall clear bottom 96-well plates (Becton Dickinson, San Jose, Calif.) with a density of 50000 cells/well, and cultured overnight. The culture medium (DMEM containing 10% FBS) was then replaced with modified Krebs solution (120 mM NaCl, 5 mM KCl, 0.62 mM MgSO4, 1.8 mM CaCl2, 10 mM HEPES, 6 mM glucose, pH 7.4) and the cells were serum starved for 6-8 hours (12 h for PC-3 cells). Cells were loaded with Fura-2 AM for 35 minutes in modified Krebs medium. The Fura-2 was removed before loading the plate in the FlexStation instrument by replacing the medium once again with 100 μl modified Krebs medium/well. Plates were incubated for 4 minutes in the instrument to allow for warming to 37° C. Changes in intracellular Ca^2+ concentration were monitored by measuring the ratio of emitted light intensity at 520 nm in response to excitation by 340 nm and 380 nm wavelength lights, respectively. Each well was monitored for 80-120 seconds. […] Time courses were recorded using the SoftMax Pro software (Molecular Devices, Sunnyvale, Calif.). Ca^+ transients were quantified automatically by calculating the difference between maximum and baseline ratio values for each well.

[2] = test system: small intestine crypts of irradiated mice; test: Crypt survival in whole-body gamma-irradiated mice (Example 9); assay type: in vivo
Method: ICR strain male mice (Harlan Laboratories, body weight 30-33 g) on a 12 h light/dark cycle and otherwise maintained on a standard laboratory chow ad libitum were starved for 16 h prior to treatment. WBI was done with a 12 Gy or 15 Gy dose using Cs^137 source at a dose rate of 1.9 Gy per minute. Groups of four mice received either 250 μl of 1 mM LPA complexed with 100 μM BSA dissolved in Hanks basal salt solution or the BSA vehicle alone 2 h prior to irradiation.
For detection of the apoptotic bodies, mice were euthanized with carbon dioxide inhalation 4 h after irradiation and the small intestine was dissected and fixed in neutral phosphate buffered isotonic 10% formalin. Four ˜3- to 4-mm long segments from the small intestine were embedded in paraffin, 5 μM thick sections were cut and stained with hematoxilin and eosin. The number of surviving crypts was counted 3.5 days after irradiation.

[3] = target: T1, LPA1 receptor (Homo sapiens, UniProt Q92633); test: LPA-induced Ca2+ transients in RH7777 cells stably expressing LPA1 (agonism/antagonism); assay type: cell-based; conditions: RH7777 cells expressing LPA1, compared to LPA 18:1
T1 construct: expressed in transfected cells
Method: (§1) RH7777 cells stably expressing either LPA1, LPA2 or LPA3 or PC-3 cells were plated on poly-D lysine-coated black wall clear bottom 96-well plates (Becton Dickinson, San Jose, Calif.) with a density of 50000 cells/well, and cultured overnight. The culture medium (DMEM containing 10% FBS) was then replaced with modified Krebs solution (120 mM NaCl, 5 mM KCl, 0.62 mM MgSO4, 1.8 mM CaCl2, 10 mM HEPES, 6 mM glucose, pH 7.4) and the cells were serum starved for 6-8 hours (12 h for PC-3 cells). […] Changes in intracellular Ca^2+ concentration were monitored by measuring the ratio of emitted light intensity at 520 nm in response to excitation by 340 nm and 380 nm wavelength lights, respectively. Each well was monitored for 80-120 seconds. […] Time courses were recorded using the SoftMax Pro software (Molecular Devices, Sunnyvale, Calif.). Ca^+ transients were quantified automatically by calculating the difference between maximum and baseline ratio values for each well.
(§2) These new analogs were evaluated as agonists and antagonists with respect to LPA1-3. […]

[4] = target: T2, LPA3 receptor (Homo sapiens, UniProt Q9UBY5); test: LPA-induced Ca2+ transients in RH7777 cells stably expressing LPA3 (agonism/antagonism); assay type: cell-based; conditions: RH7777 cells expressing LPA3, compared to LPA 18:1
T2 construct: expressed in transfected cells
T2 sequence (Q9UBY5 1-353): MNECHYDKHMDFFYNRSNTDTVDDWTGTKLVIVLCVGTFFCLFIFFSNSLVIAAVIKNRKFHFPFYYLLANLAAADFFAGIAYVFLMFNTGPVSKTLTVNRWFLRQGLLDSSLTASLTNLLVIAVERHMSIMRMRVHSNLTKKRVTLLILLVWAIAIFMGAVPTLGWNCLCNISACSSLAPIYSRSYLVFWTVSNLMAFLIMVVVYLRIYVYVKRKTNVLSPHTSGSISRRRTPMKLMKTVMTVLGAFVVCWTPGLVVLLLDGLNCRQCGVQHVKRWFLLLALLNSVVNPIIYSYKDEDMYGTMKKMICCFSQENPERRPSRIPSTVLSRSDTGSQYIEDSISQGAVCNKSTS
Method: as §1, §2

[5] = test system: IEC-6 cells; test: Camptothecin-induced DNA fragmentation in IEC-6 cells (Example 8, Cell Death Detection ELISA); assay type: cell-based; conditions: 20 μM camptothecin; LPA and FAP 12 at 10 μM
Method: IEC-6 cells were grown in DMEM medium supplemented with 5% fetal bovine serum, insulin (10 μg/ml), gentamycin sulfate (50 μg/ml), and incubated at 37° C. in a humidified 90% air-10% CO2 atmosphere. Medium was changed every other day. Sub-confluent cells were washed twice and replaced by DMEM without serum the night before experiments.
Damage and IEC-6 cell apoptosis was induced via either γ-irradiation or chemotherapy. 20 Gy single dose of [^137Cs] source γ-irradiation was used in all experiments. […] In some experiments, LPA was added at different times before or after irradiation. Treatment with 20 μM camptothecin of IEC-6 cells induces DNA fragmentation as measured by the ELISA assay at 16 h after treatment. DNA fragmentation was quantified using the Cell Death Detection ELISA kit from Boehringer (Indianapolis, Ind.) according to the instructions of the manufacturer. Samples were run in triplicate. A duplicate of the sample was used to quantify protein concentration using the BCA kit from Pierce (Rockford, Ill.). DNA fragmentation was expressed as absorbance units per μg protein per minute.

[6] = target: T3, LPA2 receptor (Homo sapiens, UniProt Q9HBW0); test: LPA-induced Ca2+ transients in RH7777 cells stably expressing LPA2 (agonism/antagonism); assay type: cell-based; conditions: RH7777 cells expressing LPA2, compared to LPA 18:1
T3 construct: expressed in transfected cells
Method: as §1, §2

[7] = test system: IEC-6 cells; test: DNA fragmentation assay in camptothecin-induced IEC-6 cells (Example 11, FIG. 7); assay type: cell-based; conditions: 20 μM camptothecin, 15 min pre-treatment, 6 hours
Method: IEC-6 cells were obtained from the American Type Culture Collection (Manassas, Va.) and were grown in Dulbecco's modified Eagle medium (DMEM) supplemented with 10% fetal bovine serum, 10 μg/ml insulin, and 50 μg/ml gentamicin sulfate at 37° C. in a humidified 90% air/10% CO2 atmosphere. The medium was changed every other day. Cells between passage 15 and 21 were used for the experiments. Newly synthesized RxBio analogs at doses ranging from […] were used to pre-treat IEC-6 cells for 15 min. Apoptosis was induced by 20 μM camptothecin following the pre-treatment. DNA fragmentation was measured 6 hours after camptothecin treatment by enzyme-linked immunosorbent assay using the cell death detection ELISA^PLUS kit from Roche (Indianapolis, Ind.) following the instruction of the manufacturer. Briefly, cells were harvested and lysed in DNA lysis buffer for 30 min. Sample lysates were collected after centrifugation at 200 rpm for 10 min. 10 μl of supernatant was loaded individually in a 96-well streptavidin-coated plate and incubated with immunoreagents (anti-histone-biotin plus anti-DNA peroxidase conjugated antibody) on a shaker for 2 h. […] DNA absorbance was read at 405 nm in a microplate reader (PerkinElmer, Shelton, Conn.). Aliquots of samples were used to quantify protein concentration using the bicinchoninic acid kit (Pierce, Rockford, Ill.).

T3 sequence (Q9HBW0 whole entry): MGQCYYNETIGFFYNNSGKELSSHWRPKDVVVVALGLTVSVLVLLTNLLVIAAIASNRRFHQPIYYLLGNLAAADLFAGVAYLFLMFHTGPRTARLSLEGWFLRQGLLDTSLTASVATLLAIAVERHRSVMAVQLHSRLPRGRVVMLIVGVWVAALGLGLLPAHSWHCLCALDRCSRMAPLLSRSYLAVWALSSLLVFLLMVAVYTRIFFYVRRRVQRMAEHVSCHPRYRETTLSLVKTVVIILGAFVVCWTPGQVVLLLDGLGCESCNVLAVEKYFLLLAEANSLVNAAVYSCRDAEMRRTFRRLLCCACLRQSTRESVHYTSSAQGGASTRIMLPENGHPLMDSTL
T1 sequence (Q92633 whole entry): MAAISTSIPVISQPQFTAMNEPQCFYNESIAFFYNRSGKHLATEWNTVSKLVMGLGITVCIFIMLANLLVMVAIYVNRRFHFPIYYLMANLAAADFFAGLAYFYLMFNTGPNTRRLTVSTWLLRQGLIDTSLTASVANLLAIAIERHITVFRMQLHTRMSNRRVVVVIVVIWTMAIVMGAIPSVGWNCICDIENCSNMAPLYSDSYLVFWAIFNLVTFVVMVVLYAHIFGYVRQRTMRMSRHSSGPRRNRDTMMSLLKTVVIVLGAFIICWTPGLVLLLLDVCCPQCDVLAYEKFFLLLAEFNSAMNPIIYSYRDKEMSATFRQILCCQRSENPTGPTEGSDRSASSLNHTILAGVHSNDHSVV

With CCCCCCC1CC1CCCCCCCCOP(O)(O)=S.N (centres unmarked) [RxBVG-II-22, Ammonium thiophosphoryl-O-[8-(2-hexyl-cyclopropyl)-octyl]ester] the Activity [1] was “LPA2 agonist”.
In the case of CCCCCCCC/C=C/CCCCCCCCOP(O)(O)=S.N [RxBVG-I-67, Ammonium thiophosphoryl-O-octadec-9E-enyl ester], the Activity [1] is reported as “LPA3 agonist”.
For CCCC/C=C\CCCCCCCCCOP(O)(O)=S.N [RxBVG-I-82, Ammonium thiophosphoryl-O-pentadec-10Z-enyl ester], the Activity [1] was “Pan antago- nist (LPA1/2/3)”.
In the case of CCCCCC/C=C\CCCCCCCCOP(O)(O)=S.N [RxBVG-I-81, Ammonium thiophosphoryl-O-hexadec-9Z-enyl ester], the Activity [1] is reported as “Pan antago- nist (LPA1/2/3)”.
With CCCCCCCCC=CCCCCCCCCOP(O)(O)=S [8g, Thiophosphoric acid O-octadec-9-enyl ester] the crypt survival ([2]; 200 μM into the stomach 2 h prior irradiation, FIG. 3) was “significantly (P>0.01) enhanced crypt survival”, the “crypt survival, dose dependence” value ([2]; FIG. 4) was “dose-dependent enhancement of crypt survival” and the “crypt survival in jejunum and ileum compared with LPA” value ([2]; γ-irradiated mice, FIG. 5) was “present in the jejunum and ileum and exceeded that of LPA”. The “ligand property at LPA1 (FIG. 2A)” value [3] was “agonist”, the “ligand property at LPA3 (FIG. 2C)” value [4] was “agonist” and the “inhibition of camptothecin-induced DNA fragmentation” value (from here on “inhibition”) [5] was “comparable to that of LPA but supersedes it at concentrations above 3 μM”. The “ligand property at LPA2 (FIG. 2B)” value [6] was “agonist”.
For CCCCCCCC/C=C\CCCCCCCC(=O)OC[C@@H](O)COP(=O)(O)O [oleoyl-LPA], the “inhibition” value [5] was “inhibited”.
With CCCCCCCCC1CC1CCCCCCCCCCOP([O-])(O)=S.[K+] (centres unmarked) [RxBVG-II-36, Potassium thiophosphoryl-O-[10-(2-octyl-cyclopropyl)-decyl]ester] the Activity [1] was “LPA2 agonist”.
With CCCCCCCCCCCCCCC(C(=O)O)C(=O)O [RxBVG-I-8, 2-Tetradecyl-malonic acid] the Activity [1] was “LPA2 agonist”.
CCCCCCCCCCCCOP(=O)(O)O [FAP 12] was tested, and the “inhibition” value [5] was “inhibited”.
In the case of CCCCCCCCC1CC1CCCCCCCCOP(O)(O)=S.N (stereo not drawn) [RxBVG-I-93, Ammonium thiophosphoryl-O-[8-(2-octyl-cis-cyclopropyl)-octyl]ester], the Activity [1] is reported as “LPA2 agonist” and the “efficacy in DNA fragmentation assay” value [7] is reported as “even more efficacy than did oleoyl thiophosphate”.
BP(=O)(O)OCCCCCCCC [RxBVG-II-13, Potassium boranophosphoryl monooctyl ester] was tested, and the Activity [1] was “LPA2 agonist”.
In the case of CCCCCCCCCCCCCCCCCCC(COP(O)(O)=S)COP(O)(O)=S.N [RxBVG-I-64, Ammonium thiophosphoryl-O-(2-thiophosphonooxymethyl-eicosyl) ester], the Activity [1] is reported as “LPA3 agonist”.
With [K+].[O-]P(O)(=S)OCCCCCCCCC1CC1 [RxBVG-II-23, Potassium thiophosphoryl-O-(8-cyclopropyl-octyl) ester] the Activity [1] was “LPA2 agonist”.
With BP(=O)(O)OCCCCCCCCCCCCCCCCCC [RxBVG-II-7, Potassium boranophosphoryl monooctadecyl ester] the Activity [1] was “LPA2 agonist”.
CCCCCCC1CC1CCCCCCCCCCOP([O-])(O)=S.[K+] (centres unmarked) [RxBVG-II-34, Potassium thiophosphoryl-O-[10-(2-hexyl-cyclopropyl)-decyl]ester] was tested, and the Activity [1] was “LPA2 agonist”.
For CCCCC/C=C\C/C=C\CCCCCCCCOP(O)(O)=S [RxBVG-I-83, Ammonium thiophosphoryl-O-octadeca-9Z,12Z-dienyl ester], the Activity [1] was “LPA2 agonist”.
With CCCCCC1CC1CC1CC1CCCCCCCCOP([O-])(O)=S.[K+] (centres unmarked) [RxBVG-II-35, Potassium thiophosphoryl-O-{8-[2-(2-pentyl-cyclopropylmethyl)-cyclopropyl]octyl}ester] the Activity [1] was “LPA2 agonist”.
“Ammonium thiophosphoryl-O-eicos-11Z-enyl ester [RxBVG-I-77]” was tested, and the Activity [1] was “LPA2 agonist”.
BP(=O)(O)OCCCCCCCCCCCCCC [RxBVG-II-9, Potassium boranophosphoryl monotetradecyl ester] was tested, and the Activity [1] was “LPA2 agonist”.
CCCCCCCC(CCCCCCC)OP(O)(O)=S [RxBVG-I-28, Thiophosphoric acid O-(1-heptyl-octyl) ester] was tested, and the Activity [1] was “Pan antago- nist (LPA1/2/3)”.
For “Potassium boranophosphoryl monododecyl ester [RxBVG-II-11]”, the Activity [1] was “LPA2 agonist”.
With CCCCCCCC(CCCCCCC)OP(=O)(O)O.N.N [RxBVG-I-27, Ammonium phosphoryl-mono-(1-heptyl-octyl) ester] the Activity [1] was “Pan antago- nist (LPA1/2/3)”.
